According to ChEMBL document CHEMBL5727810, “GLP-1 receptor agonists and uses thereof” (2020):

Tests used:
[1] = CHO GLP-1R Clone C6 Assay 2: GLP-1R-mediated agonist activity was determined with a cell-based functional assay utilizing an HTRF (Homogeneous Time-Resolved Fluorescence) cAMP detection kit (cAMP HI Range Assay Kit; Cis Bio cat #62AM6PEJ) that measures cAMP levels in the cell. The method is a competitive immunoassay between native cAMP produced by the cells and exogenous cAMP labeled with the dye …
Description: The method is a competitive immunoassay between native cAMP produced by the cells and exogenous cAMP labeled with the dye d2. The tracer binding is visualized by a mAb anti-cAMP labeled with Cryptate. The specific signal (i.e. energy transfer) is inversely proportional to the concentration of cAMP in either a standard or an experimental sample.The human GLP-1R coding sequence (NCBI Reference Sequence NP_002053.3, including naturally-occurring variant Leu260Phe) was subcloned into pcDNA5-FRT-TO and a clonal CHO cell line stably expressing a low receptor density was isolated using the Flp-In™ T-Rex™ System, as described by the manufacturer (ThermoFisher). […] Following the 30 minute incubation, 10 μL of labeled d2 cAMP and 10 μL of anti-cAMP antibody (both diluted 1:20 in cell lysis buffer; as described in the manufacturer's assay protocol) were added to each well of the assay plate. […] Raw data were converted to nM cAMP by interpolation from a cAMP standard curve (as described in the manufacturer's assay protocol) and the percent effect was determined relative to a saturating concentration of the full agonist GLP-1 (1 μM) included on each plate. EC50 determinations were made from agonist dose response curves analyzed with a curve fitting program using a 4-parameter logistic dose response equation.

[2] = CHO GLP-1R Clone H6 Assay 1: GLP-1R-mediated agonist activity was determined with a cell-based functional assay utilizing an HTRF (Homogeneous Time-Resolved Fluorescence) cAMP detection kit (cAMP HI Range Assay Kit; CisBio cat #62AM6PEJ) that measures cAMP levels in the cell. The method is a competitive immunoassay between native cAMP produced by the cells and exogenous cAMP labeled with the dye …
Description: The method is a competitive immunoassay between native cAMP produced by the cells and exogenous cAMP labeled with the dye d2. The tracer binding is visualized by a mAb anti-cAMP labeled with Cryptate. […] A 1 mL sample of the cell suspension in growth media was counted on a Becton Dickinson ViCell to determine cell viability and cell count per mL. […] Following the 30 minute incubation, 10 μL of labeled d2 cAMP and 10 μL of anti-cAMP antibody (both diluted 1:20 in cell lysis buffer; as described in the manufacturer's assay protocol) were added to each well of the assay plate. […] Raw data were converted to nM cAMP by interpolation from a cAMP standard curve (as described in the manufacturer's assay protocol) and the percent effect was determined relative to a saturating concentration of the full agonist GLP-17-36 (1 μM) included on each plate. EC50 determinations were made from agonist dose-response curves analyzed with a curve fitting program using a 4-parameter logistic dose response equation.

Row | EC50 [1] | EC50 [2] | SMILES
1 | > 20000 nM | 880 nM | COCCn1c(CN2CCN(c3cccc4c3O[C@H](c3ccc(Cl)cc3F)O4)CC2)nc2ccc(C(=O)OC)cc21
2 | 260 nM | 6.6 nM | COCCn1c(CN2CCN(c3cccc4c3O[C@@H](c3ccc(Cl)cc3F)O4)CC2)nc2ccc(C(=O)OC)cc21
3 | > 20000 nM |  | COCCn1c(CN2CCC(c3cccc4c3OC(c3ccc(Cl)cc3F)O4)CC2)nc2ccc(C(=O)O)cc21 (single isomer, unassigned)

The remaining lines, values behind:

Row | SMILES | EC50 [1] | EC50 [2]
4 | COCCn1c(C2CC23CCN(c2cccc4c2OC(C)(c2ccc(Cl)cc2F)O4)CC3)nc2ccc(C(=O)O)cc21 (configuration not stated) | > 20000 nM | 
5 | COCCn1c([C@@H]2CC23CCN(c2cccc4c2OC(C)(c2ccc(Cl)cc2F)O4)CC3)nc2ccc(C(=O)OC)cc21 (some centres not stated) | > 20000 nM | > 18000 nM
6 | C[C@]1(c2ccc(Cl)cc2F)Oc2cccc(C3CCN(Cc4nc5ccc(C(=O)O)cc5n4Cc4ncco4)CC3)c2O1 | 38 nM | 4.5 nM
7 | COCCn1c([C@H]2CC23CCN(c2cccc4c2OC(C)(c2ccc(Cl)cc2F)O4)CC3)nc2ccc(C(=O)OC)cc21 (some centres not stated) | 120 nM | 7.7 nM
